From US8362050B2, “Compounds and methods for modulating G protein-coupled receptors” (IRM LLC, priority 2008, dated 2013) come the findings set out here.

The target in the experiment is T1, Human GPR120 (Homo sapiens, UniProt Q5NUL3).
T1 construct: Ga16 (promiscuous G protein) fusion partner; expressed in transfected cells
T1 sequence (Q5NUL3 with tags, fused parts or gaps): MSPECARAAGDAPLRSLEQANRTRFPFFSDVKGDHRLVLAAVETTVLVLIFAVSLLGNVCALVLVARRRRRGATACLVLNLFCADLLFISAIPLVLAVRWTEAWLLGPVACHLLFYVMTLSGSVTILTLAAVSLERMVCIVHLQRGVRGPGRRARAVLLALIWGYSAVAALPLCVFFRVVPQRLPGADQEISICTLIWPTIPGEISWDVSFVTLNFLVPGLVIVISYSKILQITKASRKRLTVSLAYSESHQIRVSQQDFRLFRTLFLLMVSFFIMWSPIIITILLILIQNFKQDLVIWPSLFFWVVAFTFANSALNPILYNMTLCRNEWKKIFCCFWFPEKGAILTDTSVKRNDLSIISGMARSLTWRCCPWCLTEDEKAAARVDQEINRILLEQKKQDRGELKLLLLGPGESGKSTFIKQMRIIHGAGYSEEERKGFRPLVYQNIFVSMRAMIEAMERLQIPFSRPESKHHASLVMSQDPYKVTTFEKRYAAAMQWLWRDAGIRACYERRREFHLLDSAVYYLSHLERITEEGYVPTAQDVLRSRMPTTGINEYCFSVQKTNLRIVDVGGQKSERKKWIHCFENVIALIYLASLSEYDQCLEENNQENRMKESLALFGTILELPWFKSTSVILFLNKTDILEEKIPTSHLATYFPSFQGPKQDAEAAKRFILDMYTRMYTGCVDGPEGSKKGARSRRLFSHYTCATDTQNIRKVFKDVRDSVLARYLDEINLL
Kind of experiment: FLIPR assay: agonist-induced calcium mobilization in HEK293-GPR120-Ga16 cells. Format: cell-based. The following applies: for EC50: GPR120 activation, calcium mobilization, HEK293-GPR120-Ga16 cells; for Emax: % enhancement of the test compound relative to a known compound, read-out: % Efficiency. As for the experimental part: Human GPR120 stable cell-line was generated in HEK293 cells. GPR120 (Accession number BC101175) is fused to a promiscuous G protein, Ga16. The expression plasmid is transfected into HEK293 cells using Fugene6 following manufacturer's instruction. Stable cell-lines are generated following drug selection.
FLIPR (Fluorimetric Imaging Plate Reader, Molecular Devices) assays are performed to measure agonist-induced calcium mobilization in the GPR120-expressing cells. One day before the FLIPR assay, HEK293-GPR120-Ga16 cells are seeded into poly-D-lysine coated black-wall-clear bottom 384 well plates (Falcon) at 25,000 cells per well in 40 μl DMEM supplemented with 1% of FBS. The cells are incubated overnight at 37° C. in a humidified incubator. The medium is aspirated on the day of the FLIPR assay. The cells are incubated with 50 μl/well of the assay buffer (HBSS, 20 mM HEPES, 2.5 mM probenecid, pH7.4) containing Fluo-4 NM dye (Invitrogen cat# F36205) at 37° C. for 45 minutes, and then equilibrated at room temperature for 30 minutes. Compounds are dissolved in DMSO and diluted to desired concentrations with assay buffer. Fluorescent output is measured immediately following compound addition (12.5 μl/well) on the FLIPR machine.
An EC50 value was calculated using the change of fluorescent intensity from the reaction initiation. […] In some examples, compounds provided herein have EC50 values from 0.1 μM to 5 μM, while in other examples from 0.5 μM to 5 μM.
The EC50 value in those experiments is given as that concentration of the test compound in question that provoke a response halfway between the baseline and maximum responses. In certain examples compounds of Formula (I) have EC50 values from 0.001 μM to 5 μM. In other examples, compounds of Formula (I) have EC50 values from 0.001 μM to 4 μM. In other examples, compounds of Formula (I) have EC50 values from 0.001 μM to 3 μM. In other examples, compounds of Formula (I) have EC50 values from 0.001 μM to 2 μM. In other examples, compounds of Formula (I) have EC50 values from 0.001 μM to 1 μM. In other examples, compounds of Formula (I) have EC50 values from 0.001 μM to 0.5 μM. […] In other examples, compounds of Formula (I) have EC50 values from 0.001 μM to 0.1 μM.
The % efficiency in those experiments is given as that % enhancement of the test compound in question relative to a known compound. In certain examples compounds of Formula (I) have a % efficiency values from 50% to 150%. In other examples, compounds of Formula (I) have a % efficiency values from 55% to 150%. In other examples, compounds of Formula (I) have a % efficiency values from 60% to 150%. In other examples, compounds of Formula (I) have a % efficiency values from 65% to 150%. In other examples, compounds of Formula (I) have a % efficiency values from 70% to 150%. In other examples, compounds of Formula (I) have a % efficiency values from 75% to 150%. In other examples, compounds of Formula (I) have a % efficiency values from 80% to 150%. In other examples, compounds of Formula (I) have a % efficiency values from 85% to 150%. In other examples, compounds of Formula (I) have a % efficiency values from 90% to 150%. In other examples, compounds of Formula (I) have a % efficiency values from 95% to 150%. In other examples, compounds of Formula (I) have a % efficiency values from 100% to 150%.
In general terms: Calcium assays in cells follow changes in intracellular calcium, usually with a dye or a luminescent sensor.

Read-outs that look alike come from different tables or passages of the source. Some results are limits rather than exact numbers.

For the compound `CCn1c(-c2ccccc2)cs/c1=N\c1ccc(C(=O)O)c(F)c1` [Compound 14, (Z)-4-(3-ethyl-4-phenylthiazol-2(3H)-ylideneamino)-2-fluorobenzoic acid], where the note is “read-out: EC50 Range”, the EC50 (as a rule, the midpoint of the concentration-response curve) is 100 to 250 nM. Take `CCn1c(-c2ccccc2NC)cs/c1=N\c1ccc(C(=O)O)cc1` [Compound 45, (Z)-4-(3-ethyl-4-(2-(methylamino)phenyl)thiazol-2(3H)-ylideneamino)benzoic acid]: the Emax is 87.9%. Besides, the EC50 (read-out: EC50) was found to be 526 nM. The EC50 (read-out: EC50 Range) was in the range of 500 to 1000 nM. Taken in the same sequence, the figures for `O=C(O)c1ccc(/N=c2\scc(-c3ccccc3)n2CC(F)(F)F)cc1` [Compound 24, (Z)-4-(4-phenyl-3-(2,2,2-trifluoroethyl)thiazol-2(3H)-ylideneamino)benzoic acid] were 71.2%, 184 nM and 100 to 250 nM.

As for `CCn1c(-c2cccc(C#N)c2)cs/c1=N\c1ccc(S(=O)(=O)O)cc1` [Compound 1, (Z)-4-(4-(3-cyanophenyl)-3-ethylthiazol-2(3H)-ylideneamino)benzenesulfonic acid], the EC50 (read-out: EC50 Range) fell in the range of 500 to 1000 nM. On the same count and under the same terms, then `CCn1c(-c2cccc(Cl)c2)cs/c1=N\c1ccc(C(=O)O)cc1` [Compound 35, (Z)-4-(4-(3-chlorophenyl)-3-ethylthiazol-2(3H)-ylideneamino)benzoic acid], with 100 to 250 nM; and `CCn1c(-c2ccccc2C(F)(F)F)cs/c1=N\c1ccc(C(=O)O)cc1` [Compound 11, (Z)-4-(3-ethyl-4-(2-(trifluoromethyl)phenyl)thiazol-2(3H)-ylideneamino)benzoic acid], with 100 to 250 nM. Take `CCn1c(-c2ccccc2Cl)cs/c1=N\c1ccc(S(=O)(=O)O)cc1` [Compound 30, (Z)-4-(4-(2-chlorophenyl)-3-ethylthiazol-2(3H)-ylideneamino)benzenesulfonic acid]: the EC50 (read-out: EC50 Range) is 100 to 250 nM. Turning to `CCn1c(-c2ccccc2N(C)C)cs/c1=N\c1ccc(C(=O)O)cc1` [Compound 46, (Z)-4-(4-(2-(dimethylamino)phenyl)-3-ethylthiazol-2(3H)-ylideneamino)benzoic acid], the EC50 (read-out: EC50 Range) is 500 to 1000 nM. As to `CCn1c(-c2ccccc2OC)cs/c1=N\c1ccc(S(=O)(=O)O)cc1` [Compound 28, (Z)-4-(3-ethyl-4-(2-methoxyphenyl)thiazol-2(3H)-ylideneamino)benzenesulfonic acid], the EC50 (read-out: EC50 Range) fell in the range of 100 to 250 nM. Same read-out and setting: then `CCn1c(-c2ccccc2)cs/c1=N\c1ccc(C(=O)O)c(Br)c1` [Compound 15, (Z)-2-bromo-4-(3-ethyl-4-phenylthiazol-2(3H)-ylideneamino)benzoic acid], with 100 to 250 nM.

In the case of `CCn1c(-c2ccccc2)cs/c1=N\c1ccc(S(=O)(=O)O)cc1` [Compound 37, (Z)-4-(3-ethyl-4-phenylthiazol-2(3H)-ylideneamino)benzenesulfonic acid], the EC50 (read-out: EC50 Range) lay in the range of 100 to 250 nM. The same measure, in the same setting: to `CCn1c(-c2cccc(Cl)c2Cl)cs/c1=N\c1ccc(C(=O)O)cc1` [Compound 39, (Z)-4-(4-(2,3-dichlorophenyl)-3-ethylthiazol-2(3H)-ylideneamino)benzoic acid] belongs 100 to 250 nM. As for `CCc1ccc(-c2cn(-c3ccc(Cl)c(C(=O)O)c3)nn2)cc1` [Compound 68], the EC50 (read-out: EC50 Range) was greater than 5000 nM. Still for that read-out and setting: to `CCc1ccc(-c2cn(-c3cc(F)cc(C(=O)O)c3)nn2)cc1` [Compound 66, 3-(4-(4-ethylphenyl)-1H-1,2,3-triazol-1-yl)-5-fluorobenzoic acid] belongs 500 to 1000 nM; to `CCn1c(-c2cccc(Br)c2)cs/c1=N\c1ccc(S(=O)(=O)O)cc1` [Compound 5, (Z)-4-(4-(3-bromophenyl)-3-ethylthiazol-2(3H)-ylideneamino)benzenesulfonic acid], 100 to 250 nM. Consider `CCn1c(-c2ccccc2[N+](=O)[O-])cs/c1=N\c1ccc(C(=O)O)cc1` [Compound 44, (Z)-4-(3-ethyl-4-(2-nitrophenyl)thiazol-2(3H)-ylideneamino)benzoic acid], for which the Emax was 75.2%. Moreover, the EC50 (read-out: EC50) is 604 nM. For the same compound, the EC50 (read-out: EC50 Range) lay within 500 to 1000 nM.

Take `COc1ccc(-c2cn(-c3cccc(C(=O)O)c3)nn2)cc1` [Compound 55, 3-(4-(4-methoxyphenyl)-1H-1,2,3-triazol-1-yl)benzoic acid]: the EC50 (read-out: EC50 Range) was in the range of 1000 to 5000 nM. Take `CCC(C)n1c(-c2ccccc2)cs/c1=N\c1ccc(C(=O)O)cc1` (stereo not drawn) [Compound 22, (Z)-4-(3-sec-butyl-4-phenylthiazol-2(3H)-ylideneamino)benzoic acid]: the EC50 (read-out: EC50 Range) was in the range of 500 to 1000 nM. For the compound `CCn1c(-c2cccc(OC)c2)cs/c1=N\c1ccc(S(=O)(=O)O)cc1` [Compound 29, (Z)-4-(3-ethyl-4-(3-methoxyphenyl)thiazol-2(3H)-ylideneamino)benzenesulfonic acid], under “read-out: EC50 Range”, the EC50 was 250 to 500 nM. Consider `CCn1c(-c2cccc(OCCOC)c2)cs/c1=N\c1ccc(C(=O)O)cc1` [Compound 20, (Z)-4-(3-ethyl-4-(3-(2-methoxyethoxy)phenyl)thiazol-2(3H)-ylideneamino)benzoic acid], for which the Emax was determined as 77.1%. In addition, the EC50 (read-out: EC50) is 119 nM. Besides, the 50% effective concentration (EC50) (read-out: EC50 Range) lay in the range of 100 to 250 nM.

As for `CCc1ccc(-c2cn(-c3cc(C(=O)O)ccc3F)nn2)cc1` [Compound 70, 3-(4-(4-ethylphenyl)-1H-1,2,3-triazol-1-yl)-4-fluorobenzoic acid], for the setting “read-out: EC50 Range”, the EC50 fell in the range of 1000 to 5000 nM. In the case of `Cc1ccc(-n2cc(-c3cccc(C(=O)O)c3)nn2)c(F)c1` [Compound 67, 3-(1-(2-fluoro-4-methylphenyl)-1H-1,2,3-triazol-4-yl)benzoic acid], under “read-out: EC50 Range”, the EC50 was 100 to 250 nM.

As for `CCn1c(-c2ccccc2Cl)cs/c1=N\c1ccc(C(=O)O)cc1` [Compound 34, (Z)-4-(4-(2-chlorophenyl)-3-ethylthiazol-2(3H)-ylideneamino)benzoic acid], under “read-out: EC50 Range”, the EC50 lay within 100 to 250 nM. On to `CCn1c(-c2ccccc2OC(F)(F)F)cs/c1=N\c1ccc(C(=O)O)cc1` [Compound 12, (Z)-4-(3-ethyl-4-(2-(trifluoromethoxy)phenyl)thiazol-2(3H)-ylideneamino)benzoic acid], for which the EC50 (read-out: EC50 Range) fell in the range of 250 to 500 nM. With `O=C(O)c1ccc(/N=c2\scc(-c3ccccc3)n2CC2CC2)cc1` [Compound 21, (Z)-4-(3-(cyclopropylmethyl)-4-phenylthiazol-2(3H)-ylideneamino)benzoic acid], the Emax worked out at 84.7%. Also, under “read-out: EC50”, the EC50 amounted to 446 nM. Moreover, the EC50 (read-out: EC50 Range) was in the range of 250 to 500 nM. `CCn1c(-c2ccccc2N)cs/c1=N\c1ccc(C(=O)O)cc1` [Compound 43, (Z)-4-(4-(2-aminophenyl)-3-ethylthiazol-2(3H)-ylideneamino)benzoic acid]: the EC50 (read-out: EC50 Range) lay in the range of 1 to 100 nM.
